Experimental findings from PubChem BioAssay (NCI) are described below.

Common to all, as to test: NCI anticancer screen, dose series, 48 h
In assay [1] the test system is CAKI-1 renal.
Assay [2] relates to KM12 colon.
Assay [3] concerns KM20L2 colon.
Assay [4] concerns M19-MEL melanoma.
The subject of assay [5] is OVCAR-4 ovarian.
Assay [6] deals with SNB-75 CNS.
In assay [7] the test system is UACC-257 melanoma.
In assay [8] the test system is UACC-62 melanoma.
The test system of assay [9] is HCT-116 colon.
The subject of assay [10] is MDA-MB-231 breast.

Several values for one entry are separate records, joined by “and”; a condition that tells them apart may be missing. Identical values can stand only once.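 Step 1: Grow cells in 96-well plates. Step 2: Expose to compound for 48 hours at 5 concentrations. Step 3: Interpolate endpoints linearly; if unreached, use highest concentration. GI50: concentration for 50% inhibition of growth. TGI denotes the concentration required for complete inhibition of growth.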 Bounds are passed on as bounds.

Regarding `CCP(C)(C)=O`, the TGI in assay [1], in assay [2], in [3], in assay [4], in assay [5] and in [6] was over 100 µM throughout. Further, the TGI in [7] and in assay [8] was over 100 µM each time.

On to `CN(C)CCC(/C=C/c1ccccc1)=N\Nc1ccc(Cl)cc1`, for which the TGI amounted to 13.7 µM in [9]; 10.9 µM in assay [2]; 3.62 µM in assay [3]; 19.7 µM in assay [4]; 21.7 µM in assay [5]; 15.6 µM in assay [6]. For the same compound, the TGI in [7] worked out at 14.5 µM; in assay [8] it was 4.95 µM.

As for `Cc1cc(Cl)cc2c1NC(=O)C2(O)CC(=O)c1ccc(F)cc1` (centres undefined), the TGI was over 100 µM in assay [1]; over 100 µM in assay [9]; over 100 µM in assay [2]; over 100 µM in [3]; 17.9 µM in [4]; 98.1 µM in assay [5]. The TGI was over 100 µM in assay [6], over 100 µM in [7] and 42 µM in [8].

With `Cc1cccc(Cl)c1NC(=O)c1cccc([N+](=O)[O-])c1O`, the TGI in assay [1] was over 100 µM; in assay [9], over 100 µM; in assay [2], 66 µM; in assay [3] it was over 100 µM; in assay [5], over 100 µM; in assay [6], over 100 µM. For the same compound, the figures for the TGI in [7] and in assay [8] were over 100 µM and 93.9 µM, respectively.

As to `COc1cc(/C=C2\NC(=S)C3Cc4c(OC)c(C)c(OC)c(OC)c4C2N3C)c(OC)c(C)c1OC` (centres undefined), the TGI in assay [1], in assay [9], in assay [2], in assay [3], in [4] and in assay [5] was over 100 µM throughout. Besides, the TGI in [6], in assay [7] and in assay [8] was over 100 µM throughout.

Regarding `CC1NCCc2c1[nH]c1cc(O)ccc21` (centres undefined), the TGI in [1], in assay [9], in assay [2], in [3], in assay [4] and in [5] was over 100 µM in each case. Besides, the TGI in [6], in [7] and in assay [8] was over 100 µM in each case.

Turning to `C/C=C/C=C/CCCCCCCCCCCCC[C@]1(OC)C=CC(CC(=O)OC)OO1` (some centres undefined), the GI50 in assay [1] is 17.1 µM; in assay [2], 17.9 µM; in assay [3], 23.9 µM; in assay [5] it was 12.5 µM. Also, the TGI in assay [1] stood at 31.1 µM; in [9], 29.6 µM; in assay [2] it was 36.3 µM; in [3] it was 51.1 µM; in [4] it was 33 µM; in assay [5] it was 25.9 µM. In addition, the TGI in assay [6] amounted to 31.2 µM; in [7], 45.6 µM; in [8], 29.8 µM.

For `COc1cccc2c1C(=O)c1c(O)c3c(c(O)c1C2=O)C[C@@](O)(C(C)=O)C[C@@H]3OC1CC(O)C(O)C(C)O1` (some centres undefined), the TGI in assay [1] is 5.57 µM and 4.94 µM; in [9], 3.54 µM and 3.82 µM; in assay [2], 9.61 µM and 12.2 µM; in [4], 9.24 µM and 6.19 µM; in [10] it was over 100 µM; in assay [5], 9.94 µM and 16.9 µM.

For the compound `CC1(C)Cc2nnsc2C2=C1C(=O)CCS2`, the TGI in [1], in [2], in [3], in assay [5], in assay [6] and in assay [7] was over 100 µM in each case. Moreover, the TGI in assay [8] was over 100 µM.

Consider `OCCSCC/C(=N\N=C(/CCSCCO)c1ccccc1)c1ccccc1`, for which the TGI in assay [1], in assay [2], in assay [3], in assay [4], in [5] and in [7] was over 100 µM throughout. In assay [8], the TGI is over 100 µM.

For `CC(C)(C)c1cc(-c2c3nc(c(-c4cc(C(C)(C)C)cc(C(C)(C)C)c4)c4ccc([nH]4)c(-c4cc(C(C)(C)C)cc(C(C)(C)C)c4)c4nc(c(-c5cc(C(C)(C)C)cc(C(C)(C)C)c5)c5ccc2[nH]5)C=C4)C=C3)cc(C(C)(C)C)c1`, the TGI in assay [1], in assay [9], in assay [2], in assay [3], in assay [5] and in assay [6] was over 100 µM in each case. The TGI in [7] and in [8] was over 100 µM throughout.

As for `O=C1[C@@H]2C(c3ccncc3)=NO[C@@H]2C(=O)N1c1ccc(Cc2ccc(N3C(=O)[C@H]4C(c5ccncc5)=NO[C@H]4C3=O)cc2)cc1`, the TGI in [1], in assay [2], in assay [3], in assay [4], in [5] and in [6] was over 100 µM each time. The TGI in [7] and in assay [8] was over 100 µM in each case.

As to `O=[N+]([O-])c1ccc2nc3ccscc-3c2c1`, the TGI in assay [1] was 26.2 µM; in [2] it was 83.6 µM; in assay [3], 94.9 µM; in assay [4] it was 61.8 µM; in assay [5], 31.4 µM; in assay [7], over 100 µM. For the same compound, the TGI in assay [8] is 65.6 µM.

With `NCCn1cnc2nc(NC(=O)c3ccccc3)[nH]c(=O)c21`, the TGI in [9], in assay [2], in [3], in assay [4], in assay [6] and in [7] was over 100 µM throughout.

As to `CC(C)c1ccc(/C=N/N=C(N)N)cc1`, the GI50 in assay [1] is 6.31 µM; in assay [9] it was 3.34 µM; in assay [2], 3.3 µM; in assay [10], 7.39 µM; in assay [5], 10.3 µM; in assay [6], 5.68 µM. Moreover, the GI50 is 8.74 µM in assay [7] and 7.73 µM in assay [8]. For the same compound, the TGI in assay [1] stood at 22 µM; in assay [9], 11.8 µM; in assay [2] it was 11.6 µM; in [10] it was 21.5 µM; in [5], 23.2 µM; in assay [6], 26 µM. Moreover, the TGI is 24.1 µM in assay [7] and 21.3 µM in [8].

With `Clc1ccc(N/N=C(\c2ccccc2)c2ccccn2)nc1`, the GI50 was 0.172 µM in [1]; 0.0313 µM in assay [9]; 0.39 µM in [2]; 0.237 µM in assay [10]; 0.0201 µM in assay [5]; 0.614 µM in assay [6]. Further, the GI50 is 0.154 µM in [7] and 0.288 µM in assay [8]. The TGI in assay [1] is 2.3 µM and 16.7 µM; in assay [9], 10.6 µM and 11.1 µM; in [2], > 41.4 µM and 5.81 µM; in [10], > 65.8 µM and 48.4 µM; in assay [5] it was > 100 µM and 56.2 µM; in assay [7], 12 µM and 20.7 µM. Further, the TGI in assay [8] is > 36.6 µM and 15.5 µM.

As to `C=C[Si](C)(C)COC(=O)/C(C#N)=C/C=C/c1ccccc1`, the TGI is over 100 µM in assay [9]; over 100 µM in assay [2]; over 100 µM in [3]; over 100 µM in assay [4]; over 100 µM in assay [5]; 94 µM in assay [6]. The TGI in [7] and in [8] was over 100 µM throughout.

`O=C(Nc1cc(C(F)(F)F)cc(C(F)(F)F)c1)Nc1ccc(OCc2nnc(-c3ccc(Cl)cc3)o2)c(F)c1`: the GI50 was 2.72 µM in [1]; 0.802 µM in assay [9]; 1 µM in assay [2]; 1.99 µM in assay [10]; 2.31 µM in assay [5]; 1.32 µM in assay [6]. Also, the GI50 in [7] was 1.62 µM; in assay [8] it was 1.79 µM. Further, the TGI in [1] was 15.8 µM; in assay [9], 3.02 µM; in assay [2], 5.72 µM; in [10], 4.93 µM; in assay [5], 10 µM; in assay [6], 5.37 µM. Besides, the TGI turned out to be 5.01 µM in assay [7] and 11.6 µM in assay [8].

Consider `OCc1ncc(-c2ccccc2)s1`, for which the GI50 in [1], in assay [9], in assay [2], in [10], in assay [5] and in [6] was over 100 µM throughout. For the same compound, the GI50 in [7] and in assay [8] was over 100 µM in each case. For the same compound, the TGI in assay [1], in [9], in assay [2], in assay [10], in assay [5] and in [6] was over 100 µM in each case. The TGI in [7] and in [8] was over 100 µM each time.

Consider `COc1ccc(C2CC(c3cccc(OC)c3)=NN2C(=O)c2cc(OC)c(OC)c(OC)c2)cc1` (centres undefined), for which the GI50 in assay [1] was 1.22 µM; in [9] it was 1.43 µM; in assay [2], 0.717 µM; in assay [10], 1.94 µM; in [5], 10.8 µM; in assay [6], 0.624 µM. Moreover, the GI50 in [7] was 83.8 µM; in assay [8], 1.1 µM. Also, the TGI in [1], in assay [9], in [2], in assay [10], in assay [5] and in assay [6] was over 100 µM throughout. In addition, the TGI in assay [7] and in assay [8] was over 100 µM in each case.

As for `Cc1ccc(S(=O)(=O)NNC(C[N+](=O)[O-])c2ccccc2)cc1` (centres undefined), the TGI is 47.7 µM in [1]; over 100 µM in assay [9]; over 100 µM in [2]; 81.3 µM in assay [10]; 32.1 µM in assay [5]; 41 µM in assay [6]. Moreover, the TGI in assay [7] was 37.5 µM; in [8], 85.3 µM.

`O=C(c1ccccc1)c1ccc(O)c2ncccc12`: the GI50 is 1.13 µM in assay [1]; 2.62 µM in [9]; 3.25 µM in assay [2]; 3.6 µM in [10]; 2.96 µM in assay [5]; 15 µM in [6]. The GI50 in [7] was 5.75 µM; in assay [8], 2.34 µM. Also, the TGI in assay [1] was found to be 6.3 µM; in assay [9] it was 10.3 µM; in assay [2], 16.9 µM; in [10], 64.3 µM; in assay [5] it was 11 µM; in assay [6], 90.7 µM. Moreover, the values for the TGI in assay [7] and in assay [8] were over 100 µM and 10.6 µM, respectively.

Turning to `CN(C)CCCN1c2ccc(O)cc2Sc2ccc(Cl)cc21`, the TGI came out at 16 µM in [1]; 20.1 µM in assay [9]; 23 µM in [2]; 23.6 µM in assay [10]; 25.5 µM in [5]; 21 µM in assay [6]. Further, the results for the TGI in [7] and in assay [8] were 4.14 µM and 21.8 µM, respectively.

`CC(=O)[O][Hg][CH2]C1(C)COC(C)([CH2][Hg][O]C(C)=O)CO1` (centres undefined): the GI50 is 0.805 µM in assay [1]; 1.22 µM in assay [9]; 4.1 µM in assay [2]; 12.5 µM in assay [10]; 26.4 µM in [5]; 17.7 µM in [6]. Besides, the GI50 in assay [7] is 4.51 µM; in assay [8], 4.94 µM. For the same compound, the TGI in [1] was determined as 2.42 µM; in [9] it was 6.58 µM; in assay [2], 8.4 µM; in [10], 29.2 µM; in [5] it was 74.4 µM; in [6], 34 µM. In addition, the TGI in assay [7] was found to be 10.5 µM; in assay [8], 9.26 µM.

For the compound `CNC(C)[C@H]1CCC2C3CCC4C[C@@H](N(C)C(=O)c5ccccc5)CC[C@]4(C)C3CC[C@@]21C` (some centres undefined), the GI50 in assay [1] was 1.54 µM; in assay [9], 0.409 µM; in assay [2], 1.44 µM; in assay [10] it was 1.6 µM; in assay [5], 1.44 µM; in assay [6] it was 1.97 µM. For the same compound, the GI50 in [7] is 2.19 µM; in assay [8], 1.02 µM. In addition, the TGI in assay [1] was determined as 5.13 µM; in assay [9], 1.73 µM; in assay [2], 5.83 µM; in assay [10], 3.87 µM; in assay [5] it was 16.4 µM; in [6] it was 5.12 µM. The TGI in [7] is 5.53 µM; in [8], 2.64 µM.
